Reference: ChEMBL document CHEMBL4602647, “Protective effects of 10,11-dihydro-5H-dibenzo[b,f]azepine hydroxamates on vascular cognitive impairment” (Eur J Med Chem, 2020)
In brackets after ≈: the same amount, converted by molar mass. Activity calls are given as the source filed them. The calls are words filed in the database; no cut-off is given here.

Columns and labels:
Mus musculus [1] = test: Upregulation of acetylated H4K5 protein expression in left side cortex of bilateral common carotid artery occlusion-induced vascular dementia C57BL/6J mouse model at 25 mg/kg, ip measured after 3 months by Western blot analysis; assay type: functional, organism-based
[2] = Microsomal stability in rat liver microsomes assessed as parent compound remaining measured after 30 mins; assay type: ADME, Microsome; details: read-out: Stability
[3] = Microsomal stability in human liver microsomes assessed as parent compound remaining measured after 30 mins; assay type: ADME, Microsome; details: read-out: Stability
Histone deacetylase 7 = biological target: T1, Histone deacetylase 7 (Homo sapiens, UniProt Q8WUI4); test: Inhibition of recombinant human N-terminal GST-tagged HDAC7 (518 to 991 residues) expressed in baculovirus infected insect cells using Boc-K(Ac)-AMC as substrate after 90 mins by fluorimetry analysis
T1 sequence (Q8WUI4 whole entry): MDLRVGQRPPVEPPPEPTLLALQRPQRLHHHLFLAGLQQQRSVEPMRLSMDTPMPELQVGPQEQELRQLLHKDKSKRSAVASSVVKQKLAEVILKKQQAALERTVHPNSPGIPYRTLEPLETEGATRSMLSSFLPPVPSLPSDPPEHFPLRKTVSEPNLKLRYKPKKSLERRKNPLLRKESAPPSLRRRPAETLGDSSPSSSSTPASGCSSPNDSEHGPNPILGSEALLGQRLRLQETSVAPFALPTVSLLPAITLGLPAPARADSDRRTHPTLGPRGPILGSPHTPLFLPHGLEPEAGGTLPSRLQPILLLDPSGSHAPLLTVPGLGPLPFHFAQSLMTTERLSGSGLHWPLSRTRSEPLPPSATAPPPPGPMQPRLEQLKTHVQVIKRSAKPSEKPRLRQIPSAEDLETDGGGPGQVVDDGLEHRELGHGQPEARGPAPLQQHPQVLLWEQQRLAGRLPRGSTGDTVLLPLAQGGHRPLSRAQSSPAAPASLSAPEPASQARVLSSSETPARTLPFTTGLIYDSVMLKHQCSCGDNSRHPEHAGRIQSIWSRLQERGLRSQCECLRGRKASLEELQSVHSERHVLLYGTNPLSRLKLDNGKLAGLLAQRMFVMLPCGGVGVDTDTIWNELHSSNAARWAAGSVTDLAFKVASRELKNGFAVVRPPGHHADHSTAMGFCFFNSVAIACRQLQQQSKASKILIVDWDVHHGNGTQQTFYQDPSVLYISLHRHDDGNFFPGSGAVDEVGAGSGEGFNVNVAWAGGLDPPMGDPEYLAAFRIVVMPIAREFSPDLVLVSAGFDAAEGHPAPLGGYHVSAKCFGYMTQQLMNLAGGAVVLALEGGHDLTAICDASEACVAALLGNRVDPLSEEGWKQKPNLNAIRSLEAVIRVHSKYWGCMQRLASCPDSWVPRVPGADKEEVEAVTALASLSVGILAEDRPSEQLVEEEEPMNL

Mus musculus [4] = test: Upregulation of acetylated H4K5 protein expression in right side cortex of bilateral common carotid artery occlusion-induced vascular dementia C57BL/6J mouse model at 25 mg/kg, ip measured after 3 months by Western blot analysis; assay type: functional, organism-based
[5] = AUC (0 to infinity) in Sprague-Dawley rat at 10 mg/kg, po measured up to 24 hrs; assay type: ADME, organism-based; design: dose 10 mg/kg, time infinity, route oral; details: in vivo
Mus musculus [6] = test: Upregulation of acetylated H4K5 protein expression in hippocampus of bilateral common carotid artery occlusion-induced vascular dementia C57BL/6J mouse model at 25 mg/kg, ip measured after 3 months by Western blot analysis; assay type: functional, organism-based
Mus musculus [7] = test: (§1) Anti-vascular cognitive impairment activity against bilateral common carotid artery occlusion-induced vascular dementia C57BL/6J mouse model assessed as reduction in cerebral blood flow at 25 mg/kg, ip administered post surgery measured after 3 months relative to sham-operated control; assay type: functional; design: scale not given: the % may be the effect or the level left
Histone deacetylase 2 = Histone deacetylase 2 (Homo sapiens, UniProt Q92769); test: Inhibition of recombinant human C-terminal GST-tagged HDAC2 (1 to 488 residues) expressed in baculovirus infected sf21 cells using RHK-K(Ac)-AMC as substrate after 60 mins by fluorimetry assay; details: read-out: IC50
Histone deacetylase 2, sequence (Q92769 whole entry, the tested form may be a part): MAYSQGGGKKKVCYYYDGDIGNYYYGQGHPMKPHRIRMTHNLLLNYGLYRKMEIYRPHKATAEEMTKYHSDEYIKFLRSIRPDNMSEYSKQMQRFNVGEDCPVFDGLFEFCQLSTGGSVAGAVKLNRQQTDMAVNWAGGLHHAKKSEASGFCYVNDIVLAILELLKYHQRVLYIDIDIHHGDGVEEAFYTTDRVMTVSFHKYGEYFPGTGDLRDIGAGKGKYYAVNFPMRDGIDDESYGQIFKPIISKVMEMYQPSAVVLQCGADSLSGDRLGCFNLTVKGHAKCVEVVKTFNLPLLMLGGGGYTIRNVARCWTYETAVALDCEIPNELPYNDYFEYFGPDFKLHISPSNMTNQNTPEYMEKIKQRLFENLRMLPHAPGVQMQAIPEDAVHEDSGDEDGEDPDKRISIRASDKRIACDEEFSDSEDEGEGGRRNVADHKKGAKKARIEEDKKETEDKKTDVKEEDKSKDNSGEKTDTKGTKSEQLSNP

[8] = Clearance in Sprague-Dawley rat at 2 mg/kg, iv measured up to 24 hrs; assay type: ADME, organism-based; details: in vivo
Histone deacetylase 1 = Histone deacetylase 1 (Homo sapiens, UniProt Q13547); test: Inhibition of recombinant full length human C-terminal FLAG/His-tagged HDAC1 (1 to 482 residues) expressed in baculovirus infected Sf21 cells using RHK-K(Ac)-AMC as substrate measured after 60 mins by fluorimetric assay; details: read-out: IC50
Histone deacetylase 1, sequence (Q13547 whole entry, the tested form may be a part): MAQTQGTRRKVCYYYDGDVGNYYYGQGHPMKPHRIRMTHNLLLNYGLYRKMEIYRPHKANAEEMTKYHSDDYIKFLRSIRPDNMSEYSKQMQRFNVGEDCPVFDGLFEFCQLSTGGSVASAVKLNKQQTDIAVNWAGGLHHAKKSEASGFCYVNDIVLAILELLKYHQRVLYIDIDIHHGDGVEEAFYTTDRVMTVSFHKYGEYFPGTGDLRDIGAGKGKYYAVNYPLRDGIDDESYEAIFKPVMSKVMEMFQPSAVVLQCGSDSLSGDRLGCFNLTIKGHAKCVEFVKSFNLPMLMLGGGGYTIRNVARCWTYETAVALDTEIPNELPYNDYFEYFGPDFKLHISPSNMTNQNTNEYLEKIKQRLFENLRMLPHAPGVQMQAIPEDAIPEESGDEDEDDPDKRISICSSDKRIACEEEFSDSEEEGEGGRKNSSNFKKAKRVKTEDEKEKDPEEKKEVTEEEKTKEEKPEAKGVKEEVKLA

Mus musculus [9] = test: as §1, with “ratio of” for “reduction in”, “flow in left parietal area” for “flow”, “months(reference value: 0.792 +/- 0.029)” for “months relative to sham-operated control”; assay type: functional
Mus musculus [10] = test: Anti-vascular cognitive impairment activity against bilateral common carotid artery occlusion-induced vascular dementia C57BL/6J mouse model assessed as reversal of hippocampal atrophy by measuring increase in hippocampal volume at 25 mg/kg, ip administered post surgery measured after 3 months by 7T-MRI analysis; assay type: functional, organism-based
[11] = AUC (0 to infinity) in Sprague-Dawley rat at 2 mg/kg, iv measured up to 24 hrs; assay type: ADME, organism-based; design: dose 2 mg/kg, time infinity, route intravenous; details: in vivo
Histone deacetylase 4 = Histone deacetylase 4 (Homo sapiens, UniProt P56524); test: Inhibition of recombinant N-terminal GST-tagged/C-terminal His-tagged human HDAC4 (627 to 1084 residues) expressed in baculovirus infected insect cells using RHK-K(Ac)-AMC as substrate after 60 mins by fluorimetry analysis
Histone deacetylase 4, sequence (P56524 whole entry, the tested form may be a part): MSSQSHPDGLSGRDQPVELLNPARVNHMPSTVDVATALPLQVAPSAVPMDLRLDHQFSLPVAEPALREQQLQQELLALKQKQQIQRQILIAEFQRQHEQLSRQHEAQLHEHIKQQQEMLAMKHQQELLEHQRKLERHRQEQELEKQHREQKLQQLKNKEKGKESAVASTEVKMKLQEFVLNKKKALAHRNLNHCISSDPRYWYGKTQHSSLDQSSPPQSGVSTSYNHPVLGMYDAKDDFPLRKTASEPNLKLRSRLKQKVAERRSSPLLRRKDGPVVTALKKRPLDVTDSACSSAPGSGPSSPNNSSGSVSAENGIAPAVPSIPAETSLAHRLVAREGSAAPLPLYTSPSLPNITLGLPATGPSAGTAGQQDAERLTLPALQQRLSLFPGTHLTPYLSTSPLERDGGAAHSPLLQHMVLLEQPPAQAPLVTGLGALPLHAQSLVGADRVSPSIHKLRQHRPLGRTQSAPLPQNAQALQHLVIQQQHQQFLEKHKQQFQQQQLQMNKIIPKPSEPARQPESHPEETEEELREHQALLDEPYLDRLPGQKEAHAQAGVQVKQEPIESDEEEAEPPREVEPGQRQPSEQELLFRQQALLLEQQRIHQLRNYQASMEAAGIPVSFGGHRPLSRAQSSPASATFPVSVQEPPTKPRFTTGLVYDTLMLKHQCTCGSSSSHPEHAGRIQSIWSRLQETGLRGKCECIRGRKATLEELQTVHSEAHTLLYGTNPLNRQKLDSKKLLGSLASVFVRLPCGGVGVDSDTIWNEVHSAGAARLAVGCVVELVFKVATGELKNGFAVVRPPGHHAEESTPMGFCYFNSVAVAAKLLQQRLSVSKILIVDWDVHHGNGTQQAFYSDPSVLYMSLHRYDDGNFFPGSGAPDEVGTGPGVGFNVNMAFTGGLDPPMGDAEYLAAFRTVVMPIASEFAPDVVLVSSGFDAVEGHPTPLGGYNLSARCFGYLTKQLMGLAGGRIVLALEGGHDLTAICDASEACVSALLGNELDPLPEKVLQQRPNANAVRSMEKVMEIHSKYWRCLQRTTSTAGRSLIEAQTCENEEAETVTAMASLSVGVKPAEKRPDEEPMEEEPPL

Mus musculus [12] = test: Upregulation of acetylated H3K14 protein expression in right side cortex of bilateral common carotid artery occlusion-induced vascular dementia C57BL/6J mouse model at 25 mg/kg, ip measured after 3 months by Western blot analysis; assay type: functional, organism-based
[13] = Tmax in Sprague-Dawley rat at 10 mg/kg, po measured up to 24 hrs; assay type: ADME, organism-based; details: in vivo
Histone deacetylase 9 = Histone deacetylase 9 (Homo sapiens, UniProt Q9UKV0); test: Inhibition of human HDAC9 using fluorogenic Boc-Lys(trifluoroacetyl)-AMC as substrate by fluorescence based analysis
Histone deacetylase 9, sequence (Q9UKV0 whole entry, the tested form may be a part): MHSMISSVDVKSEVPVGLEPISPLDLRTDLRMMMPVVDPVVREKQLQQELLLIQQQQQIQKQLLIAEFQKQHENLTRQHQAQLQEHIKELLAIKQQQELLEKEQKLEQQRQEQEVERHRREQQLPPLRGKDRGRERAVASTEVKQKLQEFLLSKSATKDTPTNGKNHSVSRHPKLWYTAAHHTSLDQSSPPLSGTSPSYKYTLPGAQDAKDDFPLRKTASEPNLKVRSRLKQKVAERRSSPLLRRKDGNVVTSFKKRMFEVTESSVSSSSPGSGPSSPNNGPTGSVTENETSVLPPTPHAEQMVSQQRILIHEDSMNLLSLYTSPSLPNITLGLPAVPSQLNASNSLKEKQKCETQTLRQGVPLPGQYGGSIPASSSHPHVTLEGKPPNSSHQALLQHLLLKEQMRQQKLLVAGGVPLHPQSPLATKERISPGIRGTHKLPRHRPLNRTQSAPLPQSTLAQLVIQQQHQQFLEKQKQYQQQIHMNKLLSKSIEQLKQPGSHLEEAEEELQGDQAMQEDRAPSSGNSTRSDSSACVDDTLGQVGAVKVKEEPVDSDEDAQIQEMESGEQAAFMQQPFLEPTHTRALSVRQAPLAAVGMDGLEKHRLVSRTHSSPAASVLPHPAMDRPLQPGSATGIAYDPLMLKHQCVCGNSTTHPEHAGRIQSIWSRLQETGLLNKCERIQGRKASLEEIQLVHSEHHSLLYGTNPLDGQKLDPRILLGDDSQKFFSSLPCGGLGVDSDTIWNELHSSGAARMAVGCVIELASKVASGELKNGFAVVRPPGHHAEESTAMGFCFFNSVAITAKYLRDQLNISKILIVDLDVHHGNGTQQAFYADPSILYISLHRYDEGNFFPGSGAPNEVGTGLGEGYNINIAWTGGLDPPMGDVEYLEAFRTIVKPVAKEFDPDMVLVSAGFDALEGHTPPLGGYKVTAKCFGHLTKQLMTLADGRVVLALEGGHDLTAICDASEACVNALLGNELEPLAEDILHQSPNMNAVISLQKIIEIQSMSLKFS

Histone deacetylase 5 = Histone deacetylase 5 (Homo sapiens, UniProt Q9UQL6); test: Inhibition of recombinant human C-terminal His-tagged HDAC5 (657 to 1123 residues) expressed in baculovirus infected insect cells using Boc-K(Ac)-AMC as substrate after 60 mins by fluorimetry analysis
Histone deacetylase 5, sequence (Q9UQL6 whole entry, the tested form may be a part): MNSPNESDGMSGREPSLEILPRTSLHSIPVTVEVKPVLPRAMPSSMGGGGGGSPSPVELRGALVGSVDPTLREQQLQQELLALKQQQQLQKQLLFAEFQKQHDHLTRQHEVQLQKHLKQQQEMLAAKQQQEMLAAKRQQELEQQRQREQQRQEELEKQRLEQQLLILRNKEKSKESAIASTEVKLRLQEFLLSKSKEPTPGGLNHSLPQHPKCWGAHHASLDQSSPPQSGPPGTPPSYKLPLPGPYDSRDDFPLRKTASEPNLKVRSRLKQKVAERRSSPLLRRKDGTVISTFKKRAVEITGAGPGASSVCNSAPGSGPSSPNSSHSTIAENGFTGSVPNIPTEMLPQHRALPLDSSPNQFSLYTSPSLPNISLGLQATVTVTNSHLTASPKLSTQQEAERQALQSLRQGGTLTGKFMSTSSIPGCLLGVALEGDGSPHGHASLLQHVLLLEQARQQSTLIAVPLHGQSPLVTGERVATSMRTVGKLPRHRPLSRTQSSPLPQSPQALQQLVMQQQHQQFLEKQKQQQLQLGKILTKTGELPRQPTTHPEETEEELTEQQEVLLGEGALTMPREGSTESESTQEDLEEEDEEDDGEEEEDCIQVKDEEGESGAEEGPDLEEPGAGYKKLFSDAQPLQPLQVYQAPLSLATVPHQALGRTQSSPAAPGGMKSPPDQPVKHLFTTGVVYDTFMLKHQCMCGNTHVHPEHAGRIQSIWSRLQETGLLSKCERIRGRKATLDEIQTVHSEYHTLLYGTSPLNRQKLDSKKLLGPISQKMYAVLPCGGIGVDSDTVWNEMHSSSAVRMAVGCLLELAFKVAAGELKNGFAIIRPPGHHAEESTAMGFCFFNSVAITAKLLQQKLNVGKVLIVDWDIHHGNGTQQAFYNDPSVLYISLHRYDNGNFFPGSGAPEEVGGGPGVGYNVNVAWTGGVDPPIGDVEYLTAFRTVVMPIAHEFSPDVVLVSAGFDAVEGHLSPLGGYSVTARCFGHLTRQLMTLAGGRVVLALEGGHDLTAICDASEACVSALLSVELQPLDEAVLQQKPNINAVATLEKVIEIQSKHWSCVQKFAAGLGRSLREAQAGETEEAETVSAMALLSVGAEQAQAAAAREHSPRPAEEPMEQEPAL

[14] = Cmax in Sprague-Dawley rat at 10 mg/kg, po measured up to 24 hrs; assay type: ADME, organism-based; design: dose 10 mg/kg, route oral; details: in vivo
[15] = Half life in Sprague-Dawley rat at 2 mg/kg, iv measured up to 24 hrs; assay type: ADME, organism-based; details: in vivo
[16] = Oral bioavailability in Sprague-Dawley rat at 10 mg/kg measured up to 24 hrs; assay type: ADME, organism-based; details: in vivo
Mus musculus [17] = test: Upregulation of acetylated H3K14 protein expression in hippocampus of bilateral common carotid artery occlusion-induced vascular dementia C57BL/6J mouse model at 25 mg/kg, ip measured after 3 months by Western blot analysis; assay type: functional, organism-based
SH-SY5Y = test: Neuroprotective activity against OGD-induced hypoxic injury in human SH-SY5Y cells assessed as LDH release at 5 uM incubated under oxygen/glucose deprivation-induced hypoxic medium by LDH assay (reference value: 27.47 +/- 3.23 %); assay type: functional
[18] = Aqueous solubility of compound in ethanol incubated at 37 degree C by LC-MS analysis; assay type: physicochemical

In the case of `O=C(/C=C/c1ccc(CNCCCN2c3ccccc3CCc3ccc(Cl)cc32)cc1)NO`, the Activity (Mus musculus [1]) is reported as “Active”, the remaining at 0.5 h [2] is reported as 37.4% and the remaining at 0.5 h [3] is reported as 81.5%. The IC50 (Histone deacetylase 7) was “Not Active”, the Activity (Mus musculus [4]) was “Active” and the AUC(0-inf) [5] was 166 ng·h/mL. The Activity (Mus musculus [6]) was “Active”, the Activity (Mus musculus [7]) was 89 - 92% and the IC50 (Histone deacetylase 2) was 6.62 µM. The clearance [8] was 21.3 mL/min/kg, the IC50 (Histone deacetylase 1) was 3.82 µM and the Ratio (Mus musculus [9]) was 0.896. For the same compound, the Activity (Mus musculus [10]) was “Active”, the AUC(0-inf) [11] was 1850 ng·h/mL and the IC50 (Histone deacetylase 4) was “Not Active”. For the same compound, the Activity (Mus musculus [12]) was “Active”, the Tmax [13] was 3.5 h and the IC50 (Histone deacetylase 9) was “Not Active”. For the same compound, the IC50 (Histone deacetylase 5) was 6.27 µM, the Cmax [14] was 8.9 ng/mL and the half-life [15] was 17.2 h. For the same compound, the bioavailability [16] was 1.8%, the Activity (Mus musculus [17]) was “Active” and the Activity (SH-SY5Y) was 17.73%. It also gave a solubility [18] of 6.58 µg/mL (≈ 14.2 µM).
